Several values for one entry are separate records, joined by “and”; a condition that tells them apart may be missing. Identical values can stand only once. Entries after “also recorded” stand apart in the source; their conditions may differ. One block for each molecule: values may come before it.
How the values were obtained:
[1] = In vivo biodistribution in mice; parameters: species or system normal CD-1 male mice; details: iv
In short: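 Normal male CD-1 mice (25-30 g) received 20-30 μCi of ^68Ga-labelled tracer or [^18F]NaF intravenously and were sacrificed at 2, 30, 60 and 120 min. Harvested organs, with tibia and femur as bone, were weighed and gamma-counted; uptake is expressed as % ID/g wet tissue.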

[2] = system: PSMA positive LNCaP cells; test: Cell uptake in PSMA positive LNCaP cells; type: cell-based; details: 1 hr incubation at 37° C.
[3] = system: PSMA expressing LNCaP tumor; test: Micro-PET imaging in PSMA expressing tumor bearing mouse; type: in vivo, nude mice; details: 500 μCi, 60 min post injection, 15 min scan
Procedure: (§1) [^68Ga]1a, [^68Ga]BPAMD and [^18F]NaF were tested in normal CD-1 male mice. [^68Ga]1g was tested in PSMA expressing LNCaP tumor bearing nude mice. Mice received 300-500 uCi radiotracer through a tail vein injection. PET imaging was performed under isoflurane anaesthesia (2% isoflurane, 1.5 L/min oxygen). The microPET imaging was performed with a small animal PET (Mosaic by Phillips, USA). During PET measurements, the animals were placed in the prone position. At 60 min post injection of the radiotracer, data acquisition was performed for 15 min.

PSMA negative PC3 cells = test: Cell uptake in PSMA negative PC3 cells; type: cell-based; details: 1 hr incubation at 37° C.
[4] = In vitro binding to hydroxyapatite; details: 20 mg hydroxyapatite in saline, 10 min at room temperature
In short: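 Hydroxyapatite was pre-incubated 24 h in isotonic saline, then ^68Ga-labelled compound (1 μCi) was added and incubated 10 min at room temperature. After centrifugation and two saline washes, gamma counting of supernatants and solid gave percent ^68Ga bound to hydroxyapatite.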

[5] = Micro-PET imaging in normal mice; type: in vivo, normal CD-1 male mice; details: 15 min scan at 60 min post-injection
Procedure: as §1

SMILES: O=C([O-])CN(CCN(CC(=O)[O-])Cc1cc(CCC(=O)NC(P(=O)(O)O)P(=O)(O)O)ccc1[O-])Cc1cc(CCC(=O)NCCCCCC(=O)NCCCC[C@H](NC(=O)N[C@@H](CCC(=O)O)C(=O)O)C(=O)O)ccc1[O-].[68Ga+3] [[^68Ga]1g]
bone to blood ratio ([1]; 2 min): 0.97
bone to muscle ratio ([1]; 2 min): 3.71
Biodistribution: Blood ([1]; 2 min post injection): 8.34 ± 0.51 % dose/g
Biodistribution: Bone ([1]; 2 min post injection): 8.13 ± 1.87 % dose/g
Biodistribution: Brain ([1]; 2 min post injection): 0.21 ± 0.03 % dose/g
Biodistribution: Heart ([1]; 2 min post injection): 3.13 ± 0.15 % dose/g
Biodistribution: Kidney ([1]; 2 min post injection): 35.3 ± 3.75 % dose/g
Biodistribution: Liver ([1]; 2 min post injection): 1.73 ± 0.09 % dose/g
Biodistribution: Lung ([1]; 2 min post injection): 4.19 ± 0.50 % dose/g
Biodistribution: Muscle ([1]; 2 min post injection): 2.19 ± 0.11 % dose/g
Biodistribution: Pancreas ([1]; 2 min post injection): 1.69 ± 0.13 % dose/g
Biodistribution: Skin ([1]; 2 min post injection): 2.97 ± 0.14 % dose/g
Biodistribution: Spleen ([1]; 2 min post injection): 2.50 ± 0.41 % dose/g
bone to blood ratio ([1]; 30 min): 29
bone to muscle ratio ([1]; 30 min): 46
Biodistribution: Blood ([1]; 30 min (0.5 hr) post injection): 0.56 ± 0.10 % dose/g
Biodistribution: Bone ([1]; 30 min (0.5 hr) post injection): 16.3 ± 0.68 % dose/g
Biodistribution: Brain ([1]; 30 min (0.5 hr) post injection): 0.03 ± 0.00 % dose/g
Biodistribution: Heart ([1]; 30 min (0.5 hr) post injection): 0.45 ± 0.07 % dose/g
Biodistribution: Kidney ([1]; 30 min (0.5 hr) post injection): 77.1 ± 8.24 % dose/g
Biodistribution: Liver ([1]; 30 min (0.5 hr) post injection): 0.27 ± 0.02 % dose/g
Biodistribution: Lung ([1]; 30 min (0.5 hr) post injection): 1.02 ± 0.13 % dose/g
Biodistribution: Muscle ([1]; 30 min (0.5 hr) post injection): 0.35 ± 0.02 % dose/g
Biodistribution: Pancreas ([1]; 30 min (0.5 hr) post injection): 0.69 ± 0.02 % dose/g
Biodistribution: Skin ([1]; 30 min (0.5 hr) post injection): 0.65 ± 0.05 % dose/g
Biodistribution: Spleen ([1]; 30 min (0.5 hr) post injection): 2.09 ± 0.75 % dose/g
bone to blood ratio ([1]; 60 min): 53
bone to muscle ratio ([1]; 60 min): 74
Biodistribution: Blood ([1]; 60 min (1 hr) post injection): 0.28 ± 0.05 % dose/g
Biodistribution: Bone ([1]; 60 min (1 hr) post injection): 15.1 ± 1.04 % dose/g
Biodistribution: Brain ([1]; 60 min (1 hr) post injection): 0.03 ± 0.01 % dose/g
Biodistribution: Heart ([1]; 60 min (1 hr) post injection): 0.32 ± 0.03 % dose/g
Biodistribution: Kidney ([1]; 60 min (1 hr) post injection): 78.4 ± 7.11 % dose/g
Biodistribution: Liver ([1]; 60 min (1 hr) post injection): 0.18 ± 0.01 % dose/g
Biodistribution: Lung ([1]; 60 min (1 hr) post injection): 0.58 ± 0.02 % dose/g
Biodistribution: Muscle ([1]; 60 min (1 hr) post injection): 0.21 ± 0.02 % dose/g
Biodistribution: Pancreas ([1]; 60 min (1 hr) post injection): 0.37 ± 0.07 % dose/g
Biodistribution: Skin ([1]; 60 min (1 hr) post injection): 0.42 ± 0.06 % dose/g
Biodistribution: Spleen ([1]; 60 min (1 hr) post injection): 0.91 ± 0.13 % dose/g
bone to blood ratio ([1]; 120 min): 98
bone to muscle ratio ([1]; 120 min): 98
Biodistribution: Blood ([1]; 120 min post injection): 0.17 ± 0.03 % dose/g
Biodistribution: Bone ([1]; 120 min post injection): 17.0 ± 0.05 % dose/g
Biodistribution: Brain ([1]; 120 min post injection): 0.02 ± 0.00 % dose/g
Biodistribution: Heart ([1]; 120 min post injection): 0.20 ± 0.03 % dose/g
Biodistribution: Kidney ([1]; 120 min post injection): 70.3 ± 8.29 % dose/g
Biodistribution: Liver ([1]; 120 min post injection): 0.18 ± 0.02 % dose/g
Biodistribution: Lung ([1]; 120 min post injection): 0.47 ± 0.04 % dose/g
Biodistribution: Muscle ([1]; 120 min post injection): 0.17 ± 0.04 % dose/g
Biodistribution: Pancreas ([1]; 120 min post injection): 0.34 ± 0.03 % dose/g
Biodistribution: Skin ([1]; 120 min post injection): 0.29 ± 0.06 % dose/g
Biodistribution: Spleen ([1]; 120 min post injection): 0.87 ± 0.20 % dose/g
Cell uptake in PSMA positive LNCaP cells (in words) [2]: high cell uptake and retention only in LNCaP cells; also recorded: excellent uptake
Micro-PET targeting (in words) [3]: targets both bone and PSMA binding sites
Cell uptake in PSMA negative PC3 cells (in words) (PSMA negative PC3 cells): no uptake
Hydroxyapatite Binding (%) [4]: 88.0 ± 10.5%

SMILES: O=C(O)CCC(CP(=O)(O)O)C(=O)O (stereo not drawn) [2-PMPA, 2-(phosphonomethyl)pentane-1,5-dioic acid, reference compound]
Blocking of [68Ga]1g cell uptake to PSMA positive LNCaP cells [2]: blocked the cell uptake

bone to blood ratio ([1]; 2 min): 1.9
bone to muscle ratio ([1]; 2 min): 7.2
Biodistribution: Blood ([1]; 2 min post injection): 5.56 ± 0.37 % dose/g
Biodistribution: Bone ([1]; 2 min post injection): 10.8 ± 0.51 % dose/g
Biodistribution: Brain ([1]; 2 min post injection): 0.22 ± 0.07 % dose/g
Biodistribution: Heart ([1]; 2 min post injection): 2.80 ± 0.24 % dose/g
Biodistribution: Kidney ([1]; 2 min post injection): 10.4 ± 1.22 % dose/g
Biodistribution: Liver ([1]; 2 min post injection): 2.56 ± 0.24 % dose/g
Biodistribution: Lung ([1]; 2 min post injection): 3.37 ± 0.17 % dose/g
Biodistribution: Muscle ([1]; 2 min post injection): 1.50 ± 0.06 % dose/g
Biodistribution: Pancreas ([1]; 2 min post injection): 1.76 ± 0.07 % dose/g
Biodistribution: Skin ([1]; 2 min post injection): 2.35 ± 0.45 % dose/g
Biodistribution: Spleen ([1]; 2 min post injection): 2.33 ± 0.14 % dose/g
bone to blood ratio ([1]; 30 min): 38
bone to muscle ratio ([1]; 30 min): 73
Biodistribution: Blood ([1]; 30 min (0.5 hr) post injection): 0.64 ± 0.08 % dose/g
Biodistribution: Bone ([1]; 30 min (0.5 hr) post injection): 24.2 ± 2.71 % dose/g
Biodistribution: Brain ([1]; 30 min (0.5 hr) post injection): 0.10 ± 0.02 % dose/g
Biodistribution: Heart ([1]; 30 min (0.5 hr) post injection): 0.96 ± 0.23 % dose/g
Biodistribution: Kidney ([1]; 30 min (0.5 hr) post injection): 1.70 ± 0.62 % dose/g
Biodistribution: Liver ([1]; 30 min (0.5 hr) post injection): 0.65 ± 0.17 % dose/g
Biodistribution: Lung ([1]; 30 min (0.5 hr) post injection): 0.55 ± 0.11 % dose/g
Biodistribution: Muscle ([1]; 30 min (0.5 hr) post injection): 0.33 ± 0.11 % dose/g
Biodistribution: Pancreas ([1]; 30 min (0.5 hr) post injection): 0.42 ± 0.27 % dose/g
Biodistribution: Skin ([1]; 30 min (0.5 hr) post injection): 0.51 ± 0.11 % dose/g
Biodistribution: Spleen ([1]; 30 min (0.5 hr) post injection): 0.93 ± 0.56 % dose/g
bone to blood ratio ([1]; 60 min): 161
bone to muscle ratio ([1]; 60 min): 291 and 281
Biodistribution: Blood ([1]; 60 min (1 hr) post injection): 0.15 ± 0.01 % dose/g
Biodistribution: Brain ([1]; 60 min (1 hr) post injection): 0.06 ± 0.01 % dose/g
Biodistribution: Heart ([1]; 60 min (1 hr) post injection): 0.18 ± 0.02 % dose/g
Biodistribution: Kidney ([1]; 60 min (1 hr) post injection): 0.68 ± 0.36 % dose/g
Biodistribution: Liver ([1]; 60 min (1 hr) post injection): 0.13 ± 0.01 % dose/g
Biodistribution: Lung ([1]; 60 min (1 hr) post injection): 0.14 ± 0.01 % dose/g
Biodistribution: Muscle ([1]; 60 min (1 hr) post injection): 0.09 ± 0.02 % dose/g
Biodistribution: Pancreas ([1]; 60 min (1 hr) post injection): 0.07 ± 0.00 % dose/g
Biodistribution: Skin ([1]; 60 min (1 hr) post injection): 0.11 ± 0.02 % dose/g
Biodistribution: Spleen ([1]; 60 min (1 hr) post injection): 0.12 ± 0.02 % dose/g
bone to blood ratio ([1]; 120 min): 760
bone to muscle ratio ([1]; 120 min): 593
Biodistribution: Blood ([1]; 120 min post injection): 0.03 ± 0.00 % dose/g
Biodistribution: Bone ([1]; 120 min post injection): 25.2 ± 3.89 % dose/g
Biodistribution: Brain ([1]; 120 min post injection): 0.04 ± 0.00 % dose/g
Biodistribution: Heart ([1]; 120 min post injection): 0.04 ± 0.00 % dose/g
Biodistribution: Kidney ([1]; 120 min post injection): 0.57 ± 0.43 % dose/g
Biodistribution: Liver ([1]; 120 min post injection): 0.03 ± 0.01 % dose/g
Biodistribution: Lung ([1]; 120 min post injection): 0.04 ± 0.01 % dose/g
Biodistribution: Muscle ([1]; 120 min post injection): 0.04 ± 0.04 % dose/g
Biodistribution: Pancreas ([1]; 120 min post injection): 0.02 ± 0.00 % dose/g
Biodistribution: Skin ([1]; 120 min post injection): 0.03 ± 0.00 % dose/g
Biodistribution: Spleen ([1]; 120 min post injection): 0.03 ± 0.01 % dose/g
Hydroxyapatite Binding (%) [4]: 78.4 ± 3.9%
SMILES: [18F-].[Na+] [[^18F]NaF, reference compound]
Biodistribution: Bone ([1]; 60 min (1 hr) post injection): 24.6±3.2 % dose/g and 24.6 ± 3.18 % dose/g
Micro-PET localization (in words) [5]: localized in the spines of mice

Source: patent US10253052B2, “HBED-bisphosphonates, radiometal conjugates and their use as theranostic agents” (Five Eleven Pharma Inc., priority 2015, dated 2019)
